In patent US20250034105A1, “IS[…] N-METHYL-1,3-BENZODIOXOLYLBUTANAMINE (MBDB) AND STEREOISOMERS THEREOF” (Terran Biosciences Inc., priority 2021, published 2025):

Experiments:
[1] = cited from earlier work
Male Sprague-Dawley rats = experiment: Rat elevated zero maze model of anxiety; assay type: in vivo; settings: for frequency of stretched attend postures (SAPs): 30 min before 5-min test; for dose at which switch to an anxiolytic effect was shown (magnitude of reduction in SAPs): ip, rat zero maze
Description: The rat zero-maze model is a refined alternative to the plus-maze, the most widely used animal model of anxiety, and consists of an elevated annular platform, divided equally into four quadrants. Two opposite quadrants are enclosed by Perspex walls on both the inner and the outer edges of the platform, while the remaining two opposite quadrants are open being enclosed only by a Perspex “lip”. Animals will show a preference for the closed areas, and avoidance of the open sections is assumed to stem from a rodent's natural aversion to open, exposed spaces. A reduction in the amount of activity on the open areas is considered to reflect an increase in anxiety. The ethologically-based behavior stretched attend postures (SAP) from closed to open quadrants is assessed as an index of anxiety. Increase in SAPs is indicative of an anxiogenic effect and decreases in SAPs is indicative of an anxiolytic effect. Shepherd, J K; Grewel, S S; Fletcher, A; Bill, D J; Dourish, C T (1994) Behavioural and pharmacological validation of the elevated “zero-maze” as an animal model of anxiety. Psychopharmacol., 116:56-64.
Male Sprague-Dawley 200-250 g (Envigo UK) rats were used. Animals were group-housed (5 per cage; cage size: 40×40×20 cm) in a temperature-controlled environment (22±2° C.), under a 12 h light-dark cycle (lights on: 08:00 hours) for one week prior to testing. Food and water were freely available. Number of animals per group=5. Animals were moved into the experimental room 16-24 hours before testing.
The elevated 0-maze comprises a black Perspex annular platform (105 cm diameter, 10 cm width) elevated to 65 cm above ground level, divided equally into four quadrants. Two opposite quadrants are enclosed by clear red Perspex walls (27 cm high) on both the inner and outer edges of the platform, while the remaining two opposite quadrants are surrounded only by a Perspex “lip” (1 cm high) which serves as a tactile guide to animals on these open areas.
Subjects were weighed and tail marked before being injected. After a specified pre-treatment time, subjects were placed in a closed quadrant and a 5-min test period were recorded on videotape for subsequent analysis. The maze was cleaned with 5% methanol/water solution and dried thoroughly between test sessions. Behavioural measures comprise percentage time spent on the open areas (% TO) and frequency of stretched attend postures (SAP) from closed to open quadrants. Since the control groups were all treated identically with the same vehicle these were combined to increase power. The Chlordiazepoxide groups were also treated identically with the same dose so these were also combined to increase power. Animals are scored as being in the open area when all four paws were in an open quadrant and in the closed area only when all four paws have passed over the open-closed divide. All testing were carried out between 9.00 and 16.00 hours.
Chlordiazepoxide was formulated in Vehicle 1 (saline) to a concentration of 1.2 mg/mL to provide a dose of 6 mg/kg when administered ip in 5 mL/kg dosing volumes.
35 male Sprague-Dawley rats in treatment groups of 5, were intraperitoneally dosed with either Vehicle 1 (saline) or Rac-MBDB at 1 of 5 dose levels (2.5, 5, 10, 15 & 30 mg/kg) or chlordiazepoxide (6 mg/kg) in 5 mL/kg injection volumes. Thirty min later at T-0, rats were individually placed in a closed arm of the zero-maze and behavior assessed by a “blind” observer using remote video monitoring over the subsequent 5 min. The animals were then removed and the maze carefully wiped with 5% methanol/water solution before the next test was begun.
35 male Sprague-Dawley rats in treatment groups of 5, were intraperitoneally dosed with either Vehicle 1 (saline) or R-MBDB at 1 of 5 dose levels (2.5, 5, 10, 15 & 30 mg/kg) or chlordiazepoxide (6 mg/kg) in 5 mL/kg injection volumes. […]

[2] = tested on: participants diagnosed with at least moderate post-traumatic stress disorder (PTSD); experiment: Double-blind, randomized, placebo-controlled clinical trial of MBDB-assisted psychotherapy in PTSD; assay type: in vivo, human; settings: results that "may" be observed; for change in CAPS-5 assessment compared to the placebo group: at Study Conclusion
Method: A multicenter, randomized, double-blind, placebo-controlled trial is conducted to assess the efficacy and safety of MBDB-assisted psychotherapy versus psychotherapy with placebo control in participants diagnosed with at least moderate post-traumatic stress disorder (PTSD). Rationale
This multicenter, randomized, double-blind, placebo-controlled trial is conducted at various sites in the United States with IRB approval from each study site. A flexible dose of MBDB hydrochloride salt or placebo, followed by a supplemental half-dose unless contraindicated by patient's previous response or medical history, is also administered during the Treatment Period with psychotherapy in at least 3 blinded monthly Experimental Sessions. The Supplemental Dose extends the duration of drug effects on the participants during an Experimental Session. MBDB test groups are further subdivided into specific groups receiving only racemic MBDB hydrochloride salt, S-MBDB hydrochloride salt, or R-MBDB hydrochloride salt. An optional Risk Evaluation and Mitigation Strategy (REMS) Protocol may be implemented for the racemic MBDB, S-MBDB, R-MBDB, and placebo-groups. The Treatment Period lasts for approximately 12 weeks. During the Treatment Period, each Experimental Session is followed by three Intervening Sessions of non-drug psychotherapy. Each Experimental Session involves an overnight stay. The Primary Outcome measure, the change in Clinician Administered PTSD Scale for DSM-5 (CAPS-5), is determined by a blinded Independent Rater (IR) pool multiple times throughout the study. The study consists of separate periods for each participant. Initially, prospective participants undergo a Screening Period involving an initial eligibility assessment, a medical history intake, informed consent, and enrollment of eligible participants. Next, a Preparation Period is undertaken for enrolled participants involving medication tapering and clinical baseline assessments to confirm each participant meets enrollment criteria. As part of the Preparation Period, a detailed assessment of co-morbidities to PTSD is recorded. Participants may remain on prescribed courses of selective serotonin reuptake inhibitor (SSRI) or serotonin and norepinephrine reuptake inhibitor (SNRI) treatment. Dosages and/or frequency of administration of a prescribed SSRI or SNRI may be adjusted to fit within study parameters. Participants may be required to taper a prescribed course of medication in order to maintain eligibility within the study. The Treatment Period consists of three monthly Experimental Sessions and associated Intervening Sessions of integrative behavioral psychotherapy. The Treatment Period lasts approximately 12 weeks. Following the Treatment Period is a Follow-up Period and Study Conclusion. During the Follow-up Period and Study Conclusion, participants complete 4 weeks with no study visits, followed by a Study Conclusion visit.
This study compares the effects of three blinded Experimental Sessions of psychotherapy in combination with flexible doses of MBDB or placebo administered as described below. Non-drug preparatory and intervening psychotherapy sessions are also included. Patient's weight is determined for dosage calculation. Initial dose is 180 mg unless this will result in a dosage of less than 1.5 mg/kg of patient weight. Initial dose thereby adjusted upward in 50 mg increments to deliver the lowest dose possible of at least 1.5 mg/kg of patient weight. Initial dose for Experimental Session 2 and 3 is cumulative dose calculated by adding the initial dose plus REMS protocol dose used the previous Experimental Session for each patient.
The primary objective of this study is to evaluate the efficacy and safety of MBDB treatment combined with psychotherapy to treat moderate to severe PTSD compared to identical psychotherapy combined with placebo treatment. […]

SMILES	Coming Down, time after dose ([1]; adapted from PiHKAL 1991) [min]	Oral MBDB dose, drug activity level Very Strong ([1]; oral) [mg]	frequency of stretched attend postures (SAPs) (Male Sprague-Dawley rats; 10 mg/kg ip)	frequency of stretched attend postures (SAPs) (Male Sprague-Dawley rats; 15 mg/kg ip)	frequency of stretched attend postures (SAPs) (Male Sprague-Dawley rats; 30 mg/kg ip, vs vehicle)	frequency of stretched attend postures (SAPs) (Male Sprague-Dawley rats; 30 mg/kg ip, vs vehicle, listed as R MBDB)	dose at which switch to an anxiolytic effect was shown (magnitude of reduction in SAPs) (Male Sprague-Dawley rats) [mg/kg]	change in CAPS-5 assessment compared to the placebo group [2]	clinician-rated functional impairment score as measured by SDS compared to placebo-treated controls [2]	daytime sleepiness as measured by ESS [2]	depression as measured by HAM-D compared to placebo-treated controls [2]	frequency of stretched attend postures (SAPs) (Male Sprague-Dawley rats; 5 mg/kg ip, vs vehicle)	frequency of stretched attend postures (SAPs) (Male Sprague-Dawley rats; 30 mg/kg ip, vs vehicle, listed as S MBDB)
CCC(Cc1ccc2c(c1)OCO2)NC (stereo not drawn) [MBDB, 1-(benzo[d][1,3]dioxol-5-yl)-N-methylbutan-2-amine]	~90	≥350	–	–	–	–	–	–	–	–	–	–	–
CC[C@H](Cc1ccc2c(c1)OCO2)NC [R-MBDB]	–	–	produced a consistent level of SAPs similar to the 5 mg/kg	showed a reduction in the number of SAPs compared to lower doses	decreased the frequency of SAPs as effectively as the benzodiazepine chlordiazepoxide	significantly reduced the number of SAPs	15	significant mean reduction	significant improvement	significant improvement	significant improvement	–	–
CC[C@@H](Cc1ccc2c(c1)OCO2)NC [S-MBDB]	–	–	showed a rapid reduction in total SAPs	showed a reduction in the number of SAPs compared to lower doses	decreased the frequency of SAPs as effectively as the benzodiazepine chlordiazepoxide	–	10	significant mean reduction	significant improvement	significant improvement	significant improvement	reached significance	significantly reduced the number of SAPs
